According to patent publication US7410975B2, “Small molecule toll-like receptor (TLR) antagonists” (Coley Pharmaceutical Group, Inc., priority 2003, dated 2008):
Where a name gives a salt, the structure may show the parent alone.

These compounds were tested against T1, human TLR3 (hTLR3) (Homo sapiens, UniProt O15455) (assay: Antagonist screen, hTLR3-NFκB-293 cells, NF-κB-luciferase reporter, with EC50 of poly(I:C)). Conditions: compound at 0.5, 5, 50 μg/ml; EC50 concentration of poly(I:C); 16 h; NF-κB-luciferase.
T1 construct: expressed in transfected cells
T1 sequence (O15455 24-904): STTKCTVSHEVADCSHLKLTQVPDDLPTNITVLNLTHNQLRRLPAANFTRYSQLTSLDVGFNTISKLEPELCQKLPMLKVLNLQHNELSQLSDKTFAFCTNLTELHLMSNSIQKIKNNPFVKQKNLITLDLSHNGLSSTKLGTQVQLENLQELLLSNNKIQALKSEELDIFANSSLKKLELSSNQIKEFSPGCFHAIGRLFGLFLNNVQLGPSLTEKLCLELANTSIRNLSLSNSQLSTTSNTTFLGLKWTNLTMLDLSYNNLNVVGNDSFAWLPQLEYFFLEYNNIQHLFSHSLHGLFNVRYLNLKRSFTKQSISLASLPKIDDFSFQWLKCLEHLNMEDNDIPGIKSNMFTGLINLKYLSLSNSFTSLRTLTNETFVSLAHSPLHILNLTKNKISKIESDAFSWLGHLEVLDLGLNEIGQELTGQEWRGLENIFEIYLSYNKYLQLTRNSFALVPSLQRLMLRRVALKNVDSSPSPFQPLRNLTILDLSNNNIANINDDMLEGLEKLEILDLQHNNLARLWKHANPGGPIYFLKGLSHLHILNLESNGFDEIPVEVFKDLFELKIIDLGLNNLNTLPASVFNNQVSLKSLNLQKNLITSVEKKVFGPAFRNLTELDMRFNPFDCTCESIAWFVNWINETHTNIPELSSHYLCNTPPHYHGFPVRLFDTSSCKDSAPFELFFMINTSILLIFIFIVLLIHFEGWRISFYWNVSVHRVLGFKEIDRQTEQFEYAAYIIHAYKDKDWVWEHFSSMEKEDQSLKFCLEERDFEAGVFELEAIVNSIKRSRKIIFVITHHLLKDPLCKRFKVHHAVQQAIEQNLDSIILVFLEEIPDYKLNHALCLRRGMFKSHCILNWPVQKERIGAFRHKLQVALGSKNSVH
Format: cell-based
Protocol: The method is described in greater detail as follows. The cells for each individual cell clone (hTLR3-NFκB-293, hTLR7-NFκB-293, hTLR8-NFκB-293 and hTLR9-NFκB-293) were counted and seeded one day before the stimulation at 1.5×10^4 cells per well in 96-well cell culture plates. To become adherent the cells were incubated after seeding overnight at 37° C. in 5% CO2 humidified air.
The screen for each compound was performed at the same time for all of the receptors TLR3, TLR7, TLR8 and TLR9. Up to fifteen test compounds, each assayed in duplicate at each of three different final concentrations (0.5 μg/ml, 5 μg/ml, and 50 μg/ml), were used for 16 h cell stimulation on a single multiwell culture plate. A 4× final concentration master plate was created to prepare the different test compounds before they were added to the cells.
Controls were added as duplicates individually for each cell clone on the cell culture plate. Positive controls were used as follows (final concentrations): 50 μg/ml poly(I:C) for hTLR3-NFκB-293; 8 μM resiquimod (R848) for hTLR7-NFκB-293; 30 μM R848 for hTLR8-NFκB-293; and 2.5 μM CpG-ODN 2006 for hTLR9-NFκB-293. Media alone was used as negative control. After addition of controls and small molecules, the cell clones were additionally stimulated with the EC50 concentration of the appropriate receptor-specific ligand.
The mean value of wells H2 and H5 (each with cells and EC50 concentration of the appropriate receptor-specific ligand) divided by the mean of wells H3 and H6 (each with cells alone) yielded the baseline response (i.e., fold induction of luciferase activity) to EC50 concentration of the appropriate receptor-specific ligand.
After 16 h stimulation the supernatant was removed and the cells treated with lysis buffer and stored at −80° C. before measuring.
For each screen result a graphical documentation was performed.
The baseline result (measured with addition of the EC50 concentration of the receptor-specific ligand) for each cell culture plate was measured as described above. Antagonistic effects were measured by down regulation compared to the baseline. Antagonists were scored as follows: • 13: compounds for which there was clear down regulation at 0.5 μg/ml, 5 μg/ml, and 50 μg/ml; • 12: compounds for which there was clear down regulation at 5 μg/ml and 50 μg/ml; • 11: compounds for which there was clear down regulation only at 50 μg/ml; • —: compounds for which there was no clear down regulation even at 50 μg/ml. Agonists
Results were expressed as fold induction over baseline luciferase activity measured in the absence of poly(I:C). […] Additional screening was performed in like manner using additional small molecules selected from another library or specifically prepared for this purpose. Scoring is reported as above but as applied to TLR3.

Compound	hTLR3 (inhibitory effect, antagonist score)
CN(C)CCCN1c2ccccc2Sc2ccc(C(F)(F)F)cc21.Cl [compound 53, Triflupromazinehydrochloride]	11 (compounds for which there was clear down regulation only at 50 μg/ml)
C=CCc1ccccc1OC1(c2ccccc2)OC(=O)c2ccccc21 (stereo not shown) [compound 957]	12 (compounds for which there was clear down regulation at 5 μg/ml and 50 μg/ml)
O=C(O)c1cccc2c1/C(=N/O)c1ccccc1-2 [compound 918]	— (compounds for which there was no clear down regulation even at 50 μg/ml)
CN1CCC(=C2c3ccccc3Sc3ccccc32)CC1.O=C(O)/C=C\C(=O)O [compound 294, Pimethixene maleate]	11 (compounds for which there was clear down regulation only at 50 μg/ml)
O=C(O)c1ccccc1NC1CC=CC2=C1C(=O)c1ccccc1C2=O (stereo not shown) [compound 917]	12 (compounds for which there was clear down regulation at 5 μg/ml and 50 μg/ml)
CCOC(=O)c1cc([N+](=O)[O-])cc2c1-c1ccc([N+](=O)[O-])cc1C2=C(C#N)C#N [compound 1039]	— (compounds for which there was no clear down regulation even at 50 μg/ml)
Cl.Cl.Fc1ccc(C(OCCN2CCN(CCCc3ccccc3)CC2)c2ccc(F)cc2)cc1 [compound 386, GBR 12909hydrochloride]	11 (compounds for which there was clear down regulation only at 50 μg/ml)
COCCCNC(=O)c1ccc2c(c1N)C(=O)c1ccccc1C2=O [compound 1337]	11 (compounds for which there was clear down regulation only at 50 μg/ml)
Cl.Cl.c1ccc2c3c([nH]c2c1)C1C2CCC(C4CCCNC42)N1CC3 (stereo not shown) [compound 685, Nitrarine dihydorchloride]	— (compounds for which there was no clear down regulation even at 50 μg/ml)
COC(=O)c1ccc(C2CC(=O)Nc3c2ccc2ccccc32)cc1 (stereo not shown) [compound 965]	12 (compounds for which there was clear down regulation at 5 μg/ml and 50 μg/ml)
O=C(c1cccc2c1-c1ccccc1/C2=N\O)N1CCCCC1 [compound 1050]	12 (compounds for which there was clear down regulation at 5 μg/ml and 50 μg/ml)
OCCN1CCN(CCCN2c3ccccc3Sc3ccc(Cl)cc32)CC1 [compound 125, Perphenazine]	— (compounds for which there was no clear down regulation even at 50 μg/ml)
Metixene hydrochloride [compound 491]	12 (compounds for which there was clear down regulation at 5 μg/ml and 50 μg/ml)
CC[C@]12CCCN3CCc4c(n(c5ccccc45)C(=O)C1)[C@@H]32 [compound 607, Eburnamonine]	— (compounds for which there was no clear down regulation even at 50 μg/ml)
CCOC(=O)Oc1c(OC)cc(C(=O)O[C@@H]2C[C@@H]3CN4CCc5c([nH]c6cc(OC)ccc56)[C@H]4C[C@@H]3[C@H](C(=O)OC)[C@H]2OC)cc1OC [compound 564, Syrosingopine]	13 (compounds for which there was clear down regulation at 0.5 μg/ml, 5 μg/ml, and 50 μg/ml)
COC(=O)[C@H]1[C@H]2C[C@@H]3c4[nH]c5cc(OC)ccc5c4CCN3C[C@H]2C[C@@H](OC(=O)c2cc(OC)c(OC)c(OC)c2)[C@@H]1OC [compound 875, Reserpine]	— (compounds for which there was no clear down regulation even at 50 μg/ml)

Compound	hTLR3 (inhibitory effect, antagonist score)
O=C(O)c1ccc(C2(c3ccc(C(=O)O)cc3)OC(=O)c3ccccc32)cc1 [compound 970]	— (compounds for which there was no clear down regulation even at 50 μg/ml)
Cc1nccc2c1[nH]c1ccccc12 [compound 620, Harmane hydrochloride]	— (compounds for which there was no clear down regulation even at 50 μg/ml)
OC(c1ccccc1)(c1ccccc1)C1CCNCC1 [compound 93, Azacyclonol]	— (compounds for which there was no clear down regulation even at 50 μg/ml)
CC1NCCc2c1[nH]c1ccccc21.Cl (racemic) [compound 619, Eleagnine hydrochloride (R,S)]	— (compounds for which there was no clear down regulation even at 50 μg/ml)
CC(=O)Oc1cc(C)c(C2(c3cc(C(C)C)c(OC(C)=O)cc3C)OC(=O)c3ccccc32)cc1C(C)C [compound 1161]	12 (compounds for which there was clear down regulation at 5 μg/ml and 50 μg/ml)
C[C@]12N[C@H](Cc3ccccc31)c1ccccc12.O=C(O)/C=C\C(=O)O [compound 109, Dizocilpine maleate]	— (compounds for which there was no clear down regulation even at 50 μg/ml)
NC(=O)c1cccc2c1-c1ccccc1C2 [compound 1132]	11 (compounds for which there was clear down regulation only at 50 μg/ml)
CN1CCCCC1CCN1c2ccccc2Sc2ccc([S+](C)[O-])cc21.O=S(=O)(O)c1ccccc1 (stereo not shown) [compound 529, Mesoridazine besylate]	— (compounds for which there was no clear down regulation even at 50 μg/ml)
COc1ccc2c(c1)[nH]c1c(C)nccc12.Cl [compound 613, harmine hydrochloride]	12 (compounds for which there was clear down regulation at 5 μg/ml and 50 μg/ml)
Cc1cccc(C)c1NC(=O)CN1CCN(CCCC(c2ccc(F)cc2)c2ccc(F)cc2)CC1 [compound 381, Lidoflazine]	11 (compounds for which there was clear down regulation only at 50 μg/ml)
Flunarizinehydrochloride [compound 312]	11 (compounds for which there was clear down regulation only at 50 μg/ml)
O=C(O)c1cccc2c1-c1ccccc1/C2=N/Nc1ccc([N+](=O)[O-])cc1[N+](=O)[O-] [compound 944]	11 (compounds for which there was clear down regulation only at 50 μg/ml)
CN1CCN(CCCN2c3ccccc3Sc3ccc(S(=O)(=O)N(C)C)cc32)CC1.CS(=O)(=O)O.CS(=O)(=O)O [compound 149, Thioproperasinedimesylate]	— (compounds for which there was no clear down regulation even at 50 μg/ml)
Cc1nccc2c1[nH]c1cc(O)ccc12.Cl [compound 612, Harmol hydrochloride monohydrate]	11 (compounds for which there was clear down regulation only at 50 μg/ml)
Maprotilinehydrochloride [compound 346]	11 (compounds for which there was clear down regulation only at 50 μg/ml)
